According to patent publication US12545677B2, “Compounds useful as factor XIa inhibitors” (JANSSEN PHARMACEUTICA NV, priority 2020, dated 2026):

Legend:
[1] = system: HepG2 cells; assay: Cell viability, Cell Titer Fluor Assay, parallel to Seahorse assay; assay type: cell-based; conditions: Homo sapiens, 1 h, one-hour incubation, read-out: IC50, cellular viability
Description: The purpose of this assay was to investigate the effect of the compound of formula (I-A) on mitochondrial respiration in HepG2 cells using the Agilent Seahorse XFe96 analyzer. Cell viability was also determined in HepG2 cells in parallel to the Seahorse assay.
Cell viability measurements: HepG2 cells were seeded onto black-walled 96 well plates at a density of 40,000 cells/well in EMEM containing 10% HI FBS and 1× Pen/Strep and allowed to attach overnight. The next day, test compounds were prepared and diluted in EMEM. Following a one-hour incubation with the test article(s), cell viability was assessed using the Cell Titer Fluor Assay (Promega, Cat no. G6081) according to the manufacturer's protocol. The viability assay monitors activity of […], a ubiquitous protease found in live cells.
Data Analyses: Mitochondrial SRC (spare respiratory capacity) was calculated by subtracting the rate of the basal respiration from the rate of the maximal respiration. SRC values were automatically generated by the Report Generator (Agilent Technologies-version 4.0). All experiments were run in triplicate and the mean and standard deviations were calculated for each test concentration. All data were normalized to vehicle controls.
IC50 values were determined by nonlinear regression and fitting of the dose response curves to a […] equation with variable slope (Hill coefficient): […]

[2] = biological target: T1, HERG current (Homo sapiens, UniProt Q12809); assay: hERG assay, whole-cell voltage clamp in HEK293 cells; assay type: cell-based; conditions: HEK293 with stable transfection of HERG, 5 minutes of drug application
T1 construct: expressed in transfected cells; host or cells: HEK293
From the text: Biological Example 6: hERG Assay
HERG (human ether-à-go-go-related gene) encodes a potassium channel with biophysical properties similar to the rapidly activating delayed-rectifier K^+ current (IKr) in cardiac myocytes. This IKr current contributes to the K^+ current responsible for the repolarization phase of the cardiac action potential. Blockage of this current may prolong action potential duration and cause long QT-syndrome. The development of QT prolongation can lead to the occurrence of ventricular arrhythmias such as Torsades de Pointes, which can result in sudden death. […]
Electrophysiological measurements: The membrane current of the cells was measured at distinct membrane potentials with the patch clamp technique by means of an EPC-9 patch clamp amplifier. […] The HERG current (K+-selective outward current) was determined as the maximal tail current at −40 mV after a 2 second depolarization to +60 mV. […] Thereafter test pulses were given for 5 minutes to quantify the HERG current in control conditions. […] The effect of the test compound was measured after 5 minutes of drug application. […]
Measurements: The HERG current was determined as the maximal tail current at −40 mV after a 2 second depolarization to +60 mV, starting from a holding potential of −80 mV. […]

T1 sequence (Q12809 whole entry): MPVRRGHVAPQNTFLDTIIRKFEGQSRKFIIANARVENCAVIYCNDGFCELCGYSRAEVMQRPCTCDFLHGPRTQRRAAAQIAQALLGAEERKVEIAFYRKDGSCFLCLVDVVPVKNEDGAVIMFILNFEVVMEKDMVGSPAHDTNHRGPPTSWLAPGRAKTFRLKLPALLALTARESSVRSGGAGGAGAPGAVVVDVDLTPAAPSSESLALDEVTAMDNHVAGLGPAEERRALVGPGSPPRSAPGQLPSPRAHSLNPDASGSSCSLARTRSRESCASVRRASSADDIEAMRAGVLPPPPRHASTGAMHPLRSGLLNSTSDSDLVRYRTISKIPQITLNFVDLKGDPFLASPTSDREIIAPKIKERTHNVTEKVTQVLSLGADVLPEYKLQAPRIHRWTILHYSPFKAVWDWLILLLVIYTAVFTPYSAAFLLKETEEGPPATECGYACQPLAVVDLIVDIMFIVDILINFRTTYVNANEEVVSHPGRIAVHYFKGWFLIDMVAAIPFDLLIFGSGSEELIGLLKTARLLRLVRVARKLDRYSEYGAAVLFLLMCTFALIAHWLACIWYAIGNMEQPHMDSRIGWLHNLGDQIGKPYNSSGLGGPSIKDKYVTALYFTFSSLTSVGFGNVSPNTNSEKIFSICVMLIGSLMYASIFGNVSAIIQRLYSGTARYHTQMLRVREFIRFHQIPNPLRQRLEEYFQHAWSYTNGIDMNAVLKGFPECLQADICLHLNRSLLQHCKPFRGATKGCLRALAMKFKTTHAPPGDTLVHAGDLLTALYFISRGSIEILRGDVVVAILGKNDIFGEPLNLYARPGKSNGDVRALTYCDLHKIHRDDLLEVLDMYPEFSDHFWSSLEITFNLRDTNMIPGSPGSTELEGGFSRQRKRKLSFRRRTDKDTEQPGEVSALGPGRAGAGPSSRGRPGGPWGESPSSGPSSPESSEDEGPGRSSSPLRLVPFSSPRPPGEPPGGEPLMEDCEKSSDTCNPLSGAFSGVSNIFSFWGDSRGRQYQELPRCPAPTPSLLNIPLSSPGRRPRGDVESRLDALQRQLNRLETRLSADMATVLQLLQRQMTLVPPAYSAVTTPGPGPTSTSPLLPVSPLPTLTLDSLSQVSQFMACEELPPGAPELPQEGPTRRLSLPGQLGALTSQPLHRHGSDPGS

O=C1C=C(c2c(-n3cnnn3)ccc(Cl)c2F)C[C@H]2CC[C@@H](c3ncc(-c4ccnc(CO)c4F)[nH]3)N12 [Compound of formula (I-A), (3S,8aR)-7-(3-Chloro-2-fluoro-6-(1H-tetrazol-1-yl)phenyl)-3-(5-(3-fluoro-2-(hydroxymethyl)pyridin-4-yl)-1H-imidazol-2-yl)-2,3,8,8a-tetrahydroindolizin-5(1H)-one]
IC50 [1]: > 100 µM
IC50 [2]: > 30 µM
